This is an account of results in ChEMBL document CHEMBL1130736, “Syntheses of new modified Phe-Pro peptides. Use of proline replacements in potential HIV inhibitors” (Bioorg Med Chem Lett, 1998).

Peptide text beside a SMILES is read from it. * marks the point of attachment. Boc = CC(C)(C)OC(=O)*

Data set [1] is described as follows: Partition coefficient (logP). It is filed as physicochemical. To be noted: octanol/water.
The subject of data set [2] is MT4. The experiment in a line: Concentration required to inhibit syncytia formation by 50% in HIV infected HIV-BRU MT-4 cells. It is filed as functional, cell-based, Homo sapiens.
Data set [3] concerns MT4. The experiment in a line: Concentration required to cause 50% death of uninfected MT-4 cells. To be noted: Homo sapiens. Format: functional.
[4] abbreviates: Homo sapiens, MT4, read-out: IC50.

The term logP denotes the decadic logarithm of the partition coefficient of the neutral form, usually between octanol and water. Higher therefore signals a more lipophilic compound. What is called IC50 is the concentration at which inhibition is half-maximal. As a reminder, the CC50 is the concentration giving 50% cytotoxicity. A higher CC50 goes with lower toxicity to the cells. In turn, `O=C1CCN(C(=O)[C@H](Cc2ccccc2)NC(=O)c2ccccc2)C1` had a logP in data set [1] of 3.17. Moreover, the IC50 entry with MT4 [2] (mt4) is “Not Active”. For the same molecule, it took 50 µM to reach half-maximal cytotoxicity in the data set with MT4 [3] (CC50).

For `CC(C)(C)OC(=O)N[C@@H](Cc1ccccc1)C(=O)N1CCC(O)C1` (stereo not given in full), the log partition coefficient (logP) in data set [1] was 3.15. In addition, the IC50 in the data set on MT4 [2] (setting [4]) was 50 µM. Besides, in the data set on MT4 [3], half-maximal cytotoxicity (CC50) was put at 100 µM.

In data set [1], `O=C1CCN(C(=O)[C@H](Cc2ccccc2)NC(=O)c2ccc3ccccc3n2)C1` registered a logP of 3.44. For the same molecule, the IC50 in the data set with MT4 [2] (setting [4]) is 10 µM. Also, the CC50 in the data set on MT4 [3] is > 100 µM.

Consider `O=C1CCN(C(=O)[C@H](Cc2ccccc2)NC(=O)N(c2ccccc2)c2ccccc2)C1`, for which the logP in data set [1] was found to be 4.86. For the same molecule, the IC50 result in the data set on MT4 [2] (mt4) is on record as “Not Active”. For the same molecule, in the data set with MT4 [3], the 50% cytotoxic concentration (CC50) is > 100 µM.

`O=C1CCN(C(=O)[C@H](Cc2ccccc2)NC(=O)c2cccnc2)C1`: the logP in data set [1] is 2.31. The IC50 in the data set on MT4 [2] (setting [4]) stood at 0.1 µM. For the same molecule, the CC50 with MT4 [3] was > 100 µM.

In data set [1], `CCCCCCCCOC(=O)N[C@@H](Cc1ccccc1)C(=O)N1CCC(=O)C1` came in with a lipophilicity (logP) of 5.38. Moreover, in the data set on MT4 [2] (mt4), the IC50 result is “Not Active”. This molecule displayed a CC50 in the data set on MT4 [3] of 50 µM.

For `CC(C)(C)OC(=O)N[C@@H](Cc1ccccc1)C(=O)N1CCC(=O)C1`, the logP in data set [1] came out at 3.97. Further, in the data set on MT4 [2] (setting [4]), the IC50 came out at 10 µM. In addition, half-maximal cytotoxicity in the data set on MT4 [3] (CC50) was put at 100 µM.

In data set [1], `CN(C(=O)N[C@@H](Cc1ccccc1)C(=O)N1CCC(=O)C1)c1ccccc1` came in with a lipophilicity (logP) of 3.33. The IC50 result in the data set with MT4 [2] (mt4) was “Not Active”. Moreover, the CC50 in the data set on MT4 [3] was found to be 50 µM.

For `O=C1CCN(C(=O)[C@H](Cc2ccccc2)NC(=O)OCc2ccccc2)C1`, in data set [1], the logP was 3.97. The IC50 with MT4 [2] (setting [4]) is 1 µM. The molecule also displayed a half-maximal cytotoxic concentration (CC50) with MT4 [3] of 50 µM.

The molecule `CC(C)(C)OC(=O)N[C@@H](Cc1ccccc1)C(=O)N1CCC[C@H]1C(=O)O` (Boc-Phe-Pro-OH) had a logP in data set [1] of 3.96. In addition, the IC50 result in the data set on MT4 [2] (mt4) is given as “Not Active”. For the same molecule, in the data set on MT4 [3], the CC50 is > 100 µM.
